Test results reported in US20250255781A1, “PROCESSES FOR PREPARATION OF 3-D PRINTED PHARMACEUTICAL PRODUCTS” (BRISTOL-MYERS SQUIBB COMPANY, priority 2022, published 2025).

Assay: Thermal gravimetric analysis (TGA) of thermal stability
Format: physicochemical
Settings: heated 25-500° C. at 10° C./min; degradation beyond
Procedure: 2-2.5 mg of polymer and drug samples were carefully weighed and positioned in to a standard aluminium pan. The samples were heated from 25° C. to 500° C. at 10° C./min. The extracted raw data were analysed via TA Universal Analysis software (Universal Analysis 2000, version 4.5A, TA instruments, USA).

- thermally stable when heated up to (TGA): up to 140 °C
Compound: CC(C)Cc1ccc(C(C)C(=O)O)cc1 (stereo not shown) [IBU, Ibuprofen]
